Assay results as given in ChEMBL document CHEMBL1132069, “Syntheses of two trimannose analogs each containing C-mannosyl or 5-thio-C-mannosyl residue: their affinities to concanavalin A” (Bioorg Med Chem Lett, 1999).

Assay: Dissociation constant for the binding of compound to concanavalin A (Con A) was determined by fluorescence anisotropy inhibition assay.

Kd [µM] | SMILES
31 | OC[C@@H]1O[C@H](O[C@@H]2[C@@H](O)[C@@H](O)O[C@@H](CC[C@H]3S[C@@H](CO)[C@@H](O)[C@H](O)[C@H]3O)[C@H]2O)[C@H](O)[C@@H](O)[C@@H]1O
198 | OC[C@@H]1O[C@H](CC[C@@H]2O[C@H](O)[C@H](O)[C@@H](O[C@H]3O[C@@H](CO)[C@@H](O)[C@H](O)[C@H]3O)[C@@H]2O)[C@H](O)[C@@H](O)[C@@H]1O
